Measured values from patent US5603963A, “Method for the treatment of retroviral diseases such as acquired immune deficiency syndrome utilizing (pseudo)halogen complexes of gold(1)” (priority 1994, dated 1997).
Like-named read-outs stand apart in the source and are kept apart here.

Tests used:
[1] = system: AIDS; details: cited from earlier work
[2] = system: HIV; details: CEM cells; concentrations in the 6ppm range; cited from earlier work
[3] = system: HIV reverse transcriptase; details: in vitro; cited from earlier work
[4] = set-up: species or system patients; details: human, in vivo
Text: A powerful means to attack the AIDS virus (HIV) would be to find a specific inhibitor of the viral reverse transcriptase. If this enzyme cannot function, viral replication cannot take place. The significant aspect of the viral life cycle which must be considered is that the viral replication takes place intracellularly. Thus, agents which may work in a test tube to inhibit the enzyme activity will have no effect on the virus itself unless the agent is capable of entering cells and developing an effective intracellular concentration.

[5] = system: cells; details: cited from earlier work
[6] = system: whole blood
Experimental: (§1) Experiments were done in which whole blood or red blood cells were washed and resuspended in a balanced salt solution, and then incubated at 37° with 200 ppb [Au(CN)2 ]^-. After 1 hour of incubation, cells were washed with balanced salt, centrifuged, then resuspended in water to lyse the cells. The resulting suspension was centrifuged at 20,000 rpm to separate the membrane and lysate (soluble protein) fractions. Both membrane and lysate fractions were analyzed for total gold by flow injection analysis using an inductively coupled plasma-mass spectrometer (ICP-MS).

[7] = system: red blood cells
Experimental: as §1

Cc1cn([C@H]2C[C@H](N=[N+]=[N-])[C@@H](CO)O2)c(=O)[nH]c1=O [AZT, azidothymidine]
side effects ([1]; AIDS): significant side effects

O=c1[nH]cnc2c1ncn2[C@H]1CC[C@@H](CO)O1 [DDI, dideoxyinosine]
side effects ([1]; in vivo): significant side effects

bis(thioglucose)gold(I)
inhibition of the infectivity of HIV [2]: inhibit the infectivity of HIV
inhibition of HIV reverse transcriptase [3]: does inhibit HIV reverse transcriptase

gold(I) thioglucose [Solganol]
levels of gold inside cells (in words) [4]: well below the levels required to inhibit the enzyme in vitro
levels of gold inside cells relative to amount found in blood [4]: less than 5%
ability to enter cells [5]: inherently unable to enter cells
inhibition of HIV reverse transcriptase [3]: inhibit HIV reverse transcriptase

sodium gold(I) thiomalate [Myochrysine]
gold remaining in the incubation medium [6]: ~90%
total gold found in the cell lysate [6]: about 5%
total gold in Cell lysate [6]: 4%
total gold in Membranes [6]: 6%
total gold in Supernatant [6]: 90%
total gold in Cell lysate [7]: 6%
total gold in Membranes [7]: 10%
total gold in Supernatant [7]: 84%
